Each structure is given as a SMILES string. Converted amounts (≈) assume the structure as drawn. Structures can show the parent of a compound that is named as a salt. Bounds are passed on as bounds.

From patent publication US20090105301A1, “9A-SUBSTITUTED AZALIDES FOR THE TREATMENT OF MALARIA” (priority 2006, published 2009) come the findings set out here.

Assay type in all cases: cell-based, Plasmodium falciparum
Assay [1] deals with P. falciparum D6 (CDC/Sierra Leone I, D-6). Nature of the assay: In vitro screening protocol I, [3H]-hypoxanthine incorporation, D6. The settings on record: In vitro screening protocol I, P. falciparum D6; for IC50: Plasmodium falciparum, read-out: IC50 D6. The text has this: (§1) Agents Chemother. 27 (4) (1985) 525-530). The system was limited to the assessment of the intrinsic activity against the erythrocytic asexual life cycle (blood schizontocides). Two Plasmodium falciparum clones from CDC/Indochina III (W-2) and CDC/Sierra Leone I (D-6) (Oduola A M, Weatherly N F, Bowdre J H, Desjardins R E. Plasmodium falciparum: cloning by single-erythrocyte micromanipulation and heterogeneity in vitro. Exp Parasitol. 66 (1) (1988) 86-95) were used for all assays. TM91C235, a multiple drug resistant isolate from Thailand (Antimicrob. Agents Chemother. 46 (8) (2002) 2627 and Antimicrob. Agents Chemother. 43 (3) (1999) 598-602), was used for the prescreening assay. W-2 is resistant to chloroquine, quinine, and pyrimethamine and susceptible to mefloquine. D-6 tends to be more resistant to mefloquine and susceptible to chloroquine, quinine, and pyrimethamine. All documents cited in this paragraph are incorporated by reference in their entirety.
(§2) All parasites were maintained in continuous long term cultures in RPMI-1640 medium supplemented with 6% washed human A positive (A+)(erythrocytes, 25 mM Hepes, […], and 10% heat inactivated A+ human plasma or ALBUMAX® (lipid-rich bovine serum albumin; Invitrogen, Carlsbad, Calif.). All cultures and assays were conducted at 37° C. under an atmosphere of 5% CO2 and 5% O2, with a balance of N2.
(§3) The prescreening assay uses TM91C235 diluted at a 0.4% parasitemia in a 1% hematocrit in folic acid free and p-aminobenzoic acid free media RPMI-1640 and ALBUMAX®. […] The compound is further diluted in folate free (FF) culture medium with ALBUMAX® for the first initial starting concentration. The rest of the stock drug solution was kept at −70° C. The isolate was preexposed, in duplicate, at three concentrations (25,000 ng/ml, 2,500 ng/ml, and […]) of the test compound for 48 hr in a 96-well microtiter plate (MTP) using the BIOMEK® 2000 automated laboratory workstation. Each MTP contains chloroquine as control to assess the relative activity of the compound and to monitor the response of TM91C235.
(§4) After the preincubation, [^3H]-hypoxanthine was added to each well of the MTP. (The assay relies on the incorporation of radiolabeled hypoxanthine by the parasites, which indicates reproduction, and inhibition of isotope incorporation was attributed to activity of known or candidate antimalarial drugs). After 72 hours of total incubation time, the MTP were frozen to lyse the erythrocytes and parasites. The parasite DNA was recovered by harvesting the lysate onto glass-fiber filter plates using a Packard FilterMate™ Cell Harvester. The radioactivity was counted on a Packard TopCount™ microplate scintillation counter.
(§5) The serial dilution assay was conducted using the same assay conditions and stock solution of the compound used for the preliminary screen, described above. Both the D-6 and the W-2 clones were used. The compounds were diluted two-fold over 11 different concentration ranges with a starting concentration that was based on the preliminary screen. For each drug, the concentration response profile was determined and 50% inhibitory concentrations (IC50) were determined by using a non-linear, logistic dose response analysis program. […] For each assay, the IC50 for each clone was determined against the known antimalarials chloroquine and mefloquine. These control values established the compound's relative parasite susceptibility profile compared to known antimalarials. […]

The subject of assay [2] is P. falciparum TM91C235. Nature of the assay: In vitro screening protocol I, [3H]-hypoxanthine incorporation, TM91C235. The settings on record: In vitro screening protocol I, P. falciparum TM91C235; for IC50: Plasmodium falciparum, read-out: IC50 TM91C235.
Description: as §1, §2, §3, §4, §5

Assay [3] deals with P. falciparum W2 (CDC/Indochina III, W-2). Put plainly: In vitro screening protocol I, [3H]-hypoxanthine incorporation, W2. The conditions noted are these: In vitro screening protocol I, P. falciparum W2; for IC50: Plasmodium falciparum, read-out: IC50 W2.
Description: as §1, §2, §3, §4, §5

As for `CC[C@H]1OC(=O)[C@H](C)[C@@H](O[C@H]2C[C@@](C)(OC)[C@@H](O)[C@H](C)O2)[C@H](C)[C@@H](O[C@@H]2O[C@H](C)C[C@H](N(C)C)[C@H]2O)[C@](C)(O)C[C@@H](C)CN(CCCNC(=O)Cc2cccc3ccccc23)[C@H](C)[C@@H](O)[C@]1(C)O` [Example 29, 9a-{3-[(Naphtalen-1-yl-acetyl)amino]propyl}-9a-aza-9-deoxo-9-dihydro-9a-homoerythromycin A Formiate Salt], the IC50 was 0.2 to 1 µg/mL in assay [1], < 0.1 µg/mL in assay [2] and 0.2 to 1 µg/mL in assay [3].
Consider `CC[C@H]1OC(=O)[C@H](C)[C@@H](O[C@H]2C[C@@](C)(OC)[C@@H](O)[C@H](C)O2)[C@H](C)[C@@H](O[C@@H]2O[C@H](C)C[C@H](N(C)C)[C@H]2O)[C@](C)(O)C[C@@H](C)CN(CCCNC(=O)CCCCc2ccccc2)[C@H](C)[C@@H](O)[C@]1(C)O` [Example 31, 9a-{3-[(5-Phenylpentanoyl)amino]propyl}-9a-aza-9-deoxo-9-dihydro-9a-homoerythromycin A Formiate Salt], for which the IC50 in assay [1] was 0.2 to 1 µg/mL; in assay [2] it was < 0.1 µg/mL; in assay [3], 0.1 to 0.2 µg/mL.
In the same order, the values of `CC[C@H]1OC(=O)[C@H](C)[C@@H](O[C@H]2C[C@@](C)(OC)[C@@H](O)[C@H](C)O2)[C@H](C)[C@@H](O[C@@H]2O[C@H](C)C[C@H](N(C)C)[C@H]2O)[C@](C)(O)C[C@@H](C)CN(CCCNC(=O)[C@H](C)c2ccc3cc(OC)ccc3c2)[C@H](C)[C@@H](O)[C@]1(C)O` [Example 32, 9a-[3-({(2S)-2-[6-(methyloxy)-naphthalen-2-yl]propanoyl}amino)propyl]-9a-aza-9-deoxo-9-dihydro-9a-homoerythromycin A Formiate Salt] are 0.2 to 1 µg/mL, < 0.1 µg/mL and 0.1 to 0.2 µg/mL.
For `CC[C@H]1OC(=O)[C@H](C)[C@@H](O[C@H]2C[C@@](C)(OC)[C@@H](O)[C@H](C)O2)[C@H](C)[C@@H](O[C@@H]2O[C@H](C)C[C@H](N(C)C)[C@H]2O)[C@](C)(O)C[C@@H](C)CN(CCCNC(=O)Cc2ccc3ccccc3c2)[C@H](C)[C@@H](O)[C@]1(C)O` [Example 33, 9a-{3-[(Naphtalen-2-yl-acetyl)amino]propyl}-9a-aza-9-deoxo-9-dihydro-9a-homoerythromycin A Formiate Salt], the IC50 is 0.1 to 0.2 µg/mL in assay [1], < 0.1 µg/mL in assay [2] and 0.2 to 1 µg/mL in assay [3].
In the same order, the values of `CC[C@H]1OC(=O)[C@H](C)[C@@H](O[C@H]2C[C@@](C)(OC)[C@@H](O)[C@H](C)O2)[C@H](C)[C@@H](O[C@@H]2O[C@H](C)C[C@H](N(C)C)[C@H]2O)[C@](C)(O)C[C@@H](C)CN(CCCNC(=O)c2ocnc2C)[C@H](C)[C@@H](O)[C@]1(C)O` [Example 34, 9a-(3-{[(4-Methyl-1,3-oxazol-5-yl)carbonyl]amino}propyl)-9a-aza-9-deoxo-9-dihydro-9a-homoerythromycin A Formiate Salt] are 2.5 to 2.8 µg/mL, 0.2 to 1 µg/mL and 1 to 2.5 µg/mL.
Consider `CC[C@H]1OC(=O)[C@H](C)[C@@H](O)[C@H](C)[C@@H](O[C@@H]2O[C@H](C)C[C@H](N(C)C)[C@H]2O)[C@](C)(O)C[C@@H](C)CN(CCCNC(=O)Cc2cccc3ccccc23)[C@H](C)[C@@H](O)[C@]1(C)O` [Example 36, 9a-{3-[(Naphtalen-1-yl-acetyl)amino]propyl}-3-O-decladinosyl-9a-aza-9-deoxo-9-dihydro-9a-homoerythromycin A Formiate Salt], for which the IC50 in assay [1], in assay [2] and in assay [3] was 1 to 2.5 µg/mL each time.
In the case of `CC[C@H]1OC(=O)[C@H](C)[C@@H](O)[C@H](C)[C@@H](O[C@@H]2O[C@H](C)C[C@H](N(C)C)[C@H]2O)[C@](C)(O)C[C@@H](C)CN(CCCNC(=O)[C@H](C)c2ccc3cc(OC)ccc3c2)[C@H](C)[C@@H](O)[C@]1(C)O` [Example 37, 9a-[3-({(2S)-2-[6-(methyloxy)-naphthalen-2-yl]propanoyl}amino)propyl]-3-O-decladinosyl-9a-aza-9-deoxo-9-dihydro-9a-homoerythromycin A Formiate Salt], the IC50 in assay [1], in assay [2] and in assay [3] was 0.2 to 1 µg/mL each time.
`CC[C@H]1OC(=O)[C@H](C)[C@@H](O[C@H]2C[C@@](C)(OC)[C@@H](O)[C@H](C)O2)[C@H](C)[C@@H](O[C@@H]2O[C@H](C)C[C@H](N(C)C)[C@H]2O)[C@](C)(O)C[C@@H](C)CN(CCC(=O)NCc2ccccc2)[C@H](C)[C@@H](O)[C@]1(C)O` [Example 38]: the IC50 in assay [1], in assay [2] and in assay [3] was 0.2 to 1 µg/mL (≈ 0.223 to 1.12 µM) each time.
As to `CC[C@H]1OC(=O)[C@H](C)[C@@H](O[C@H]2C[C@@](C)(OC)[C@@H](O)[C@H](C)O2)[C@H](C)[C@@H](O[C@@H]2O[C@H](C)C[C@H](N(C)C)[C@H]2O)[C@](C)(O)C[C@@H](C)CN(CCC(=O)NCCc2ccccc2)[C@H](C)[C@@H](O)[C@]1(C)O` [Example 39], the IC50 in assay [1], in assay [2] and in assay [3] was 0.2 to 1 µg/mL (≈ 0.22 to 1.1 µM) throughout.
In the case of `CC[C@H]1OC(=O)[C@H](C)[C@@H](O[C@H]2C[C@@](C)(OC)[C@@H](O)[C@H](C)O2)[C@H](C)[C@@H](O[C@@H]2O[C@H](C)C[C@H](N(C)C)[C@H]2O)[C@](C)(O)C[C@@H](C)CN(CCC(=O)NCCCc2ccccc2)[C@H](C)[C@@H](O)[C@]1(C)O` [Example 40], the results for the IC50 in assay [1], in assay [2] and in assay [3] were 0.2 to 1 µg/mL (≈ 0.216 to 1.08 µM), 0.1 to 0.2 µg/mL (≈ 0.108 to 0.216 µM) and 0.1 to 0.2 µg/mL (≈ 0.108 to 0.216 µM), respectively.
Regarding `CC[C@H]1OC(=O)[C@H](C)[C@@H](O[C@H]2C[C@@](C)(OC)[C@@H](O)[C@H](C)O2)[C@H](C)[C@@H](O[C@@H]2O[C@H](C)C[C@H](N(C)C)[C@H]2O)[C@](C)(O)C[C@@H](C)CN(CCC(=O)NCCCCc2ccccc2)[C@H](C)[C@@H](O)[C@]1(C)O` [Example 41], the figures for the IC50 in assay [1], in assay [2] and in assay [3] were 0.1 to 0.2 µg/mL (≈ 0.107 to 0.213 µM), < 0.1 µg/mL and < 0.1 µg/mL, respectively.
Take `CC[C@H]1OC(=O)[C@H](C)[C@@H](O[C@H]2C[C@@](C)(OC)[C@@H](O)[C@H](C)O2)[C@H](C)[C@@H](O[C@@H]2O[C@H](C)C[C@H](N(C)C)[C@H]2O)[C@](C)(O)C[C@@H](C)CN(CCC(=O)N[C@@H](C)c2cccc3ccccc23)[C@H](C)[C@@H](O)[C@]1(C)O` [Example 42]: the values for the IC50 in assay [1], in assay [2] and in assay [3] were 0.1 to 0.2 µg/mL (≈ 0.104 to 0.208 µM), < 0.1 µg/mL and < 0.1 µg/mL, respectively.
Take `CC[C@H]1OC(=O)[C@H](C)[C@@H](O[C@H]2C[C@@](C)(OC)[C@@H](O)[C@H](C)O2)[C@H](C)[C@@H](O[C@@H]2O[C@H](C)C[C@H](N(C)C)[C@H]2O)[C@](C)(O)C[C@@H](C)CN(CCC(=O)NCc2ccc3ccccc3c2)[C@H](C)[C@@H](O)[C@]1(C)O` [Example 43]: the IC50 was 0.1 to 0.2 µg/mL (≈ 0.106 to 0.211 µM) in assay [1], < 0.1 µg/mL in assay [2] and < 0.1 µg/mL in assay [3].
With `CC[C@H]1OC(=O)[C@H](C)[C@@H](O[C@H]2C[C@@](C)(OC)[C@@H](O)[C@H](C)O2)[C@H](C)[C@@H](O[C@@H]2O[C@H](C)C[C@H](N(C)C)[C@H]2O)[C@](C)(O)C[C@@H](C)CN(CCCNC(=O)CCc2ccccc2)[C@H](C)[C@@H](O)[C@]1(C)O` [Example 46, 9a-{3-[(3-Phenylpropanoyl)amino]propyl}-9a-aza-9-deoxo-9-dihydro-9a-homoerythromycin A], in assay [1], the “IC50 D6” value is recorded as “C (200 < X ≦ 1000)”. The “IC50 TM91C235” value in assay [2] is reported as “C (200 < X ≦ 1000)”. The “IC50 W2” value in assay [3] is reported as “C (200 < X ≦ 1000)”.
